Reference: patent publication US5756092A, “Use, in a composition, as cyclooxygenase activator and/or stabilizer, of at least one pyrimidine derivative sustituted at the 6th position and a cyclooxygenase substrate” (SocieteL'Oreal S.A., priority 1995, dated 1998)

Legend:
[1] = target: T1, prostaglandin-endoperoxide synthase (PGHS) (Ovis aries, UniProt P05979); assay: Measurement of the activating and/or stabilizing power at a given concentration (oxygen consumption, Clark electrode); assay type: biochemical, sheep; conditions: 0.5 mM; 37° C.; initial rate; % relative to control
T1 construct: isolated from sheep seminal gland; purchased Cayman Chemical 60100; host or cells: sheep seminal gland
T1 sequence (P05979 25-600): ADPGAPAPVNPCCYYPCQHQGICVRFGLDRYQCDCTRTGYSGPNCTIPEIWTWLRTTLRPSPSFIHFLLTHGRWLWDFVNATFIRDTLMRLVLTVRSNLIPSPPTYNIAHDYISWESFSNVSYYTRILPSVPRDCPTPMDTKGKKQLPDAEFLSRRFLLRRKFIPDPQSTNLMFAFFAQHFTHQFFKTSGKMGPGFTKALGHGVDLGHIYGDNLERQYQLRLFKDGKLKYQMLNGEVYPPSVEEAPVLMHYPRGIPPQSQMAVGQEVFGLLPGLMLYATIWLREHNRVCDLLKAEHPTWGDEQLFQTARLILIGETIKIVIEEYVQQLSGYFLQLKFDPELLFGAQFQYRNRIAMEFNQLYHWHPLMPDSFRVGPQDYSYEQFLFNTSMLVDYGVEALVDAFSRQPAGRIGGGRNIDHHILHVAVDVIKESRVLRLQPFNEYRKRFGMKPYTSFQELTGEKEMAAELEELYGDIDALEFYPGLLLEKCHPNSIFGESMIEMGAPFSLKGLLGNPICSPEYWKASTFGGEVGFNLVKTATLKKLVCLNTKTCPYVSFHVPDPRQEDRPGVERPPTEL
Description: As indicated above, the enzymatic activity of a cyclooxygenase is indicated by a consumption of oxygen. It is therefore possible to monitor the course of the reaction in progress by measuring the consumption of oxygen in the reaction medium and thus to evaluate the activity of the enzyme by measuring the consumption of oxygen.
At time T=0 of the process, a buffered solution containing a cyclooxygenase is introduced into a measuring tank and then the whole is allowed to stabilize for at least one minute.
At time T=1 minute, an appropriate quantity of enzyme substrate is added and the oxygen consumption of the reaction is recorded.
This recording makes it possible to deduce the initial rate of the reaction and the period during which the initial rate of the reaction is maintained.
When a substance potentially having an activity on the cyclooxygenase is tested, the variation of the slope in a positive or negative direction relative to the results obtained with the enzyme alone reflects either the activation or the inhibition of the activity of the enzyme.
Measurement of the activating and/or stabilizing power of pyrimidine derivatives substituted at the 6th position, at a given concentration.
The quantity of oxygen necessary for the oxidation of arachidonic acid is measured by the cyclooxygenase activity of prostaglandin-endoperoxide synthase, in the presence or absence of the derivative to be tested.
The measurements of the consumption of oxygen are performed with a Clark electrode connected to a YSI 5300 oxygen meter of the Yellow Spring Instruments trademark.
These measurements are performed in an open chamber, with constant stirring, at a temperature of 37° C.
If a graph recorder is used, the measurement of the oxygen consumption takes the form of a curve whose maximum slope makes it possible to deduce the initial rate of the reaction, and from which it is possible to calculate the period during which the initial rate of the reaction is maintained.
The measurement of the activity of the derivatives to be tested is performed under the same conditions, by adding, to the reaction medium, the derivative to be tested. It is the variation of the slope and the variation of the period during which the maximum rate is maintained which make it possible to evaluate the activity of the derivative to be tested towards cyclooxygenase.
A solution of 0.1M TRIS and 5 mM EDTA at pH=8.00 (TE solution) is prepared.
The substrate is prepared in the form of a stock solution of potassium arachidonate according to the manufacturer's procedure (Interchim, France).
The solution thus obtained has an arachidonic acid titre of 46 mM. It can be stored at 4° C. for 24 hours.
The derivatives to be tested are prepared in the form of a stock solution with a titre of 5 mM in a water/alcohol mixture (80/20) and tested with the same batch of enzyme.
At t=0, there are introduced into the measuring chamber 380 μl of TEA buffer preheated to 37° C. that are allowed to equilibrate for at least one minute.
At t=1, 300 units of enzyme (PGHS) are introduced.
The recording is initiated and the whole is again allowed to stabilize for one minute. The recording obtained gives the base level of the reaction.
After an additional minute, 10 μl of substrate are introduced and the consumption of oxygen is recorded for 2 to 3 minutes.
The initial rate of the reaction and the period during which this rate is maintained are thus determined.
The experimental conditions are identical to those above, except that the TEA buffer preheated to 37° C. is replaced by an identical buffer containing the derivative to be tested at a concentration of 0.5 mM.

hair growth = conditions: U.S. Pat. No. 4,596,812; cited from earlier work
[2] = U.S. Pat. No. 4,596,812; cited from earlier work
[3] = target: T2, prostaglandin-endoperoxide synthase (Ovis aries, UniProt P05979); assay: Calculation of the 50% activating concentration (AC 50) for the activation of prostaglandin-endoperoxide synthase; assay type: biochemical, sheep
T2 construct: isolated from sheep seminal gland
T2 sequence (P05979 25-600): T1 sequence (P05979 25-600)
Protocol: Calculation of the 50% activating concentration (AC 50) of 2,4-diamino-6-piperidinopyrimidine 3-oxide for the activation of prostaglandin-endoperoxide synthase. 2,4-diamino-6-piperidinopyrimidine 3-oxide Activation
By a statistical calculation (log-linear regression, the correlation coefficient being 0.98 and the significance of the binding less than or equal to 0.01), an AC 50 is found for 40 μM for 2,4-diamino-6-piperidinopyrimidine 3-oxide.

lipoxygenase = conditions: literature (Bedford et al., 1983); cited from earlier work
cyclooxygenase = conditions: literature; cited from earlier work

## Nc1cc(N2CCCCC2)nc(N)n1 [2,4-diamino-6-piperidinopyrimidine]
[1]
  activation at 500 µM: -14%

## Nc1cc(N2CCCCC2)nc(N)[n+]1[O-] [2,4-diamino-6-piperidinopyrimidine 3-oxide]
Hair growth
  capacity to promote hair growth: capacity to promote hair growth
[2]
  antihypertensive effects: antihypertensive effects
[3]; 15.6 μM, read-out: Activation (% of control)
  activation at 15.6 µM: 23%
[3]; 62.5 μM, read-out: Activation (% of control)
  activation at 62.5 µM: 61%
[3]; 125 μM, read-out: Activation (% of control)
  activation at 125 µM: 90%
[3]; 250 μM, read-out: Activation (% of control)
  activation at 250 µM: 102%
[3]; 500 μM, read-out: Activation (% of control)
  activation at 500 µM: 146%
[3]; 1000 μM, read-out: Activation (% of control)
  activation at 1000 µM: 181%
[3]; log-linear regression, correlation coefficient 0.98
  AC50: 40 µM
[1]
  activation at 500 µM: 58%

## O=C1C(O)=C(O)C(=O)c2cc(Cl)ccc21 [6-chloro-2,3-dihydroxy-1,4-naphthoquinone]
lipoxygenase
  effect on lipoxygenase: lipoxygenase inhibitor
cyclooxygenase
  effect on cyclooxygenase activity: cyclooxygenase stimulating agent

## CCCNc1cc(N(C)C)nc(NCCC)[n+]1[O-] [2,4-dipropylamino-6-dimethylaminopyrimidine 3-oxide]
[1]
  activation at 500 µM: 171%

## CCCNc1cc(N(C)C)nc(N)[n+]1[O-] [2-amino-4-propylamino-6-dimethylaminopyrimidine 3-oxide]
[1]
  activation at 500 µM: 117%

## COc1ccc2c(c1)c(CC(=O)O)c(C)n2C(=O)c1ccc(Cl)cc1 [Indomethacin, 1-(4-Chlorobenzoyl)-5-methoxy-2-methyl-1H-indole-3-acetic acid]
[1]
  activation at 500 µM: -100%

## Cc1nc(N2CCCCC2)cc(N)[n+]1[O-] [2-methyl-4-amino-6-piperidinopyrimidine 3-oxide]
[1]
  activation at 500 µM: 24%

## CCCNc1cc(N2CCCCC2)nc(N)[n+]1[O-] [2-amino-4-propylamino-6-piperidinopyrimidine 3-oxide]
[1]
  activation at 500 µM: 173%

## CCCCOc1cc(N)[n+]([O-])c(N)n1 [2,4-diamino-6-butyloxypyrimidine 3-oxide]
[1]
  activation at 500 µM: 13%
